Where no end group is shown, it is not given here. [ ]: non-standard residue; d: D form. pS = N[C@@H](COP(=O)(O)O)C(=O)O
How the values were obtained:
Huh-1_p62^−/− cells = assay: subdermal transplantation of Huh-1_p62−/− cells with introduced p62 mutants into nude mice; assay type: in vivo; details: 50 days after transplantation, introduced into Huh-1_p62−/−
Procedure: First, p62 cDNAs which encode S349E (SEQ ID No. 8) (pseudo-phosphorylated p62) with the substitution of glutamic acid for serine 349 of human p62 (SEQ ID No. 7), S349A (SEQ ID No. 9) (non-phosphorylated p62) with the substitution of alanine for serine 349 of human p62, or T350A (SEQ ID No. 10) (p62 mutant defective in interacting with Keap1) with the substitution of alanine for threonine 350 of human p62 was prepared.
Next, a [Huh-1_p62^−/−] cell line was generated by knocking out the p62 gene in Huh-1 cells, using Zinc Finger Nuclease system (Sigma-Aldrich, CompoZr (registered trademark) Zinc Finger Nuclease). Then, adenoviruses having p62 w.t. or p62 mutant were produced, using Adenovirus expression kit (Takara Bio). The [Huh-1_p62^−/−] cells were cultured in 2 ml of a growth medium (Williams E medium containing 10% fetal bovine serum, 5 U/ml penicillin, and 50 μg/ml streptomycin) for 24 hours. The medium was replaced with a fresh medium containing adenovirus at MOI of 50 and the cells were continuously cultured. Wild-type human p62 (SEQ ID No. 7), S349E (SEQ ID No. 8), S349A (SEQ ID No. 9), and T350A (SEQ ID No. 10) were introduced into the [Huh-1_p62^−/−] cell line and thus a [Huh-1_p62^−/−_p62 w.t.] cell line with p62 w.t., a [Huh-1_p62^−/−_p62S349E] cell line with p62S349E, a [Huh-1_p62^−/−_p62S349A] cell line with p62S349A, and a [Huh-1_p62^−/−_p62T350A] cell line with p62T350A, respectively, in [Huh-1_p62^−/−] cell line was obtained.
Each of the cells was transplanted subdermally into […] nude mice. […] Each cell line was transplanted into five mice and the volume (left) and the weight (right) of the tumors were measured 50 days after the transplantation. Mean±standard error for each cell line was calculated and shown in the graphs in FIG. 7(b).

[1] = molecular target: mouse Keap1-DC (aa321-609, SEQ ID No. 24) (Mus musculus, UniProt Q9Z2X8); assay: isothermal titration calorimetry, binding to Keap1-DC; details: for binding affinity for Keap1-DC relative to KIR of the non-phosphorylated p62: fold higher binding constant; for Binding constant (Ka) to Keap1-DC: isothermal titration calorimetry, 25° C.
Chain of mouse Keap1-DC (aa321-609, SEQ ID No. 24) (Q9Z2X8 321-609): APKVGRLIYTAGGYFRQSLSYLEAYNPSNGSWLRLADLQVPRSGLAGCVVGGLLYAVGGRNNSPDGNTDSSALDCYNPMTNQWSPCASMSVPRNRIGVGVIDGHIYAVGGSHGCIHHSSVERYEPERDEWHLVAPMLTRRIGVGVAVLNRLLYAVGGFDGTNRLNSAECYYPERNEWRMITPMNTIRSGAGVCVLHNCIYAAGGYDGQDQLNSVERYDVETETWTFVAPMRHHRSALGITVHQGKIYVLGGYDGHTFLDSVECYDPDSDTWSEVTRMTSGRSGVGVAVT
Procedure: Binding isotherms were obtained using isothermal titration calorimetry, for the interaction of mouse Keap1-DC (aa321-609, SEQ ID No. 24) with KIR in mouse non-phosphorylated p62 (SEQ ID No. 21), KIR in mouse phosphorylated p62 (SEQ ID No. 21), or an ETGE motif of mouse Nrf2 (SEQ ID No. 26) (FIG. 2).
First, isothermal titration calorimetry was performed using MicroCal iTC200 System (GE Healthcare) at 25° C. 2.5 μl of 0.1 mM solution of non-phosphorylated KIR (^348[sequence]^356, SEQ ID No. 21) was injected from a rotating syringe (1000 rpm) into 200 μl of 0.1 mM solution of Keap1-DC sixteen times at an interval of 3 minutes. 1.3 μl of 0.6 mM phosphorylated KIR (^348VDP(pS)TGELQ^356) solution was injected from a rotating syringe (1000 rpm) into 200 μl of 0.06 mM Keap1-DC solution thirty times at an interval of 2 minutes. […] The binding data were analyzed using Origin 7 software (GE healthcare).

Nrf2 = assay: immunoblotting of nuclear and whole cell extracts of hepatocytes expressing p62 mutants; assay type: cell-based, mouse; details: normal hepatocytes
Procedure: Adenoviruses capable of expressing FLAG-tagged p62 w.t. […] Next, normal hepatocytes were cultured in 2 ml of growth medium (Williams E medium containing 10% fetal bovine serum, 5 U/mL penicillin, and 50 μg/mL streptomycin) for 24 hours. The medium was replaced with fresh medium containing the adenovirus at MOI of 50 and the culture was continued. Twenty-four hours after the replacement of the medium, whole cell extract (Total) and nuclear extract (Nucleus) were prepared. Next, immunoprecipitates were prepared from the whole cell extract with anti-FLAG antibody (Sigma Chemical). Then, the samples were separated by NuPAGE electrophoresis system (Invitrogen) on 12% bis-tris gel and MOPS-SDS buffer, and transferred to PVDF membranes. The signals were detected using anti-p62 antibody (GP62C: Progen Biotechnik), anti-Keap1 antibody (Proteintech Group), anti-phosphorylated p62 antibody, anti-Nqo1 antibody (Abcam), anti-Actin antibody (MAB1501R: Millipore), anti-Nrf2 antibody (H-300: Santa Cruz Biotechnology), and anti-LaminB antibody (M-20: Santa Cruz Biotechnology).

Substance: T350A: human p62 mutant defective in interacting with Keap1, alanine for threonine 350, SEQ ID No. 10 [reference compound]
- in vivo proliferation of the tumor cells (tumor volume and weight) (Huh-1_p62^−/− cells): not recovered

Substance: phosphorylated p62-KIR: Keap1-interacting region peptide of mouse p62 phosphorylated at serine 351, 348VDP(pS)TGELQ356 (VDP[pS]TGELQ; listed as Mus musculus)
- binding affinity for Keap1-DC relative to KIR of the non-phosphorylated p62 [1]: about 100 times
- binding affinity for Keap1-DC relative to KIR of the non-phosphorylated p62 ([1]; listed as KIR in the phosphorylated p62): approximately 100 times
- Binding constant (Ka) to Keap1-DC [1]: (5.12±1.80)×10^6 M^−1

Substance: S351E: pseudo-phosphorylated mouse p62 mutant, glutamic acid for serine 351, SEQ ID No. 2
- Nrf2 accumulation in nuclei (Nrf2; nuclear extract): significantly accumulated
- expression of Nqo1 (Nrf2 target) (Nrf2; whole cell extract): induced

Substance: non-phosphorylated p62-KIR: non-phosphorylated Keap1-interacting region peptide of mouse p62, 348VDPSTGELQ356, SEQ ID No. 21 (listed as Mus musculus) [reference compound]
- Binding constant (Ka) to Keap1-DC [1]: (5.67±1.19)×10^4 M^−1

Substance: S349A: non-phosphorylated human p62 mutant, alanine for serine 349, SEQ ID No. 9
- in vivo proliferation of the tumor cells (tumor volume and weight) (Huh-1_p62^−/− cells): not recovered

Substance: p62 (S349E): pseudo-phosphorylated human p62 mutant, glutamic acid for serine 349, SEQ ID No. 8
- in vivo proliferation of the tumor cells (tumor volume and weight) (Huh-1_p62^−/− cells): significantly enhanced

Source: patent publication US9632092B2, “Reagent for diagnosing tumor, pharmaceutical composition, and screening method” (Tokyo Metropolitan Institute of Medical Science, priority 2012, dated 2017)
